In the supplement of paper PMC10307832:

Key:
Test in all cases: relative viability (nuclei count vs DMSO), 5 days (fraction); higher = more cells survive
Imatinib + Luminespib = compound: Cc1ccc(NC(=O)c2ccc(CN3CCN(C)CC3)cc2)cc1Nc1nccc(-c2cccnc2)n1 [Imatinib] + CCNC(=O)c1noc(-c2cc(C(C)C)c(O)cc2O)c1-c1ccc(CN2CCOCC2)cc1 [Luminespib] (partner 0.01 µM)
Summary of the method: (§1)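 One day after seeding in 1536-well plates, lung cancer cell lines were dosed by pin tool. Dosing was either single-drug or a fixed anchor-drug dose plus five library-drug doses (not always all listed) in √10 steps. After 5 days, nuclei were stained in one fix-and-stain step and counted on 4× images, and relative viability is the nuclei count of treated wells over that of vehicle wells, given as the median of duplicate plates.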

Imatinib + Olaparib = compound: Cc1ccc(NC(=O)c2ccc(CN3CCN(C)CC3)cc2)cc1Nc1nccc(-c2cccnc2)n1 [Imatinib] + O=C(c1cc(Cc2n[nH]c(=O)c3ccccc23)ccc1F)N1CCN(C(=O)C2CC2)CC1 [Olaparib] (partner 8 µM)
Summary of the method: as §1

Imatinib + OSI-027 = compound: Cc1ccc(NC(=O)c2ccc(CN3CCN(C)CC3)cc2)cc1Nc1nccc(-c2cccnc2)n1 [Imatinib] + COc1cccc2cc(-c3nc([C@H]4CC[C@H](C(=O)O)CC4)n4ncnc(N)c34)[nH]c12 [OSI-027] (partner 0.5 µM)
Summary of the method: as §1

Imatinib + Crizotinib = compound: Cc1ccc(NC(=O)c2ccc(CN3CCN(C)CC3)cc2)cc1Nc1nccc(-c2cccnc2)n1 [Imatinib] + C[C@@H](Oc1cc(-c2cnn(C3CCNCC3)c2)cnc1N)c1c(Cl)ccc(F)c1Cl [Crizotinib] (partner 1 µM)
Summary of the method: as §1

Cell Line | relative viability (Imatinib + Luminespib; first compound 0.06325 µM) | relative viability (Imatinib + Luminespib; first compound 0.2 µM) | relative viability (Imatinib + Luminespib; first compound 0.6325 µM) | relative viability (Imatinib + Luminespib; first compound 2 µM) | relative viability (Imatinib + Olaparib; first compound 0.02 µM) | relative viability (Imatinib + Olaparib; first compound 0.2 µM) | relative viability (Imatinib + Olaparib; first compound 0.6325 µM) | relative viability (Imatinib + OSI-027; first compound 0.06325 µM) | relative viability (Imatinib + OSI-027; first compound 0.2 µM) | relative viability (Imatinib + OSI-027; first compound 0.6325 µM) | relative viability (Imatinib + OSI-027; first compound 2 µM) | relative viability (Imatinib + Crizotinib; first compound 0.02 µM) | relative viability (Imatinib + Crizotinib; first compound 0.06325 µM) | relative viability (Imatinib + Crizotinib; first compound 0.2 µM) | relative viability (Imatinib + Crizotinib; first compound 0.6325 µM) | relative viability (Imatinib + Luminespib; first compound 0.02 µM) | relative viability (Imatinib + Olaparib; first compound 0.06325 µM) | relative viability (Imatinib + Olaparib; first compound 2 µM) | relative viability (Imatinib + OSI-027; first compound 0.02 µM) | relative viability (Imatinib + Crizotinib; first compound 2 µM)
EKVX | 0.712 | 0.817 | 0.926 | 0.847 | 1.05 | 1.12 | 0.923 | 0.388 | 0.65 | 0.551 | 0.868 | 0.937 | 0.861 | 1.08 | 0.886 |  |  |  |  | 
NCI-H1975 | 0.191 | 0.201 | 0.178 | 0.274 | 0.756 | 0.947 | 0.803 | 0.772 | 0.827 | 0.579 | 0.549 | 1.1 | 1.16 | 1.1 | 0.916 | 0.254 | 0.815 | 0.712 | 0.843 | 1.07
NCI-H322M | 0.868 | 0.826 | 0.873 | 0.826 | 0.821 | 0.734 | 0.678 | 0.544 | 0.553 | 0.522 | 0.52 | 0.966 | 1.1 |  | 0.836 | 0.987 | 0.857 | 0.807 | 0.624 | 
NCI-H2347 | 0.425 | 0.431 | 0.475 | 0.608 | 0.551 | 0.614 | 0.587 | 0.384 | 0.318 | 0.442 | 0.426 | 0.675 | 0.674 | 0.729 | 0.647 | 0.499 |  | 0.479 | 0.287 | 0.797
NCI-H1355 |  |  |  |  | 0.812 | 0.822 | 0.762 |  | 0.388 | 0.315 | 0.432 | 1.13 |  | 1.21 | 1.03 |  |  | 0.699 | 0.386 | 1.15
NCI-H1650 | 0.2 | 0.184 | 0.192 | 0.193 | 1 | 0.944 | 0.859 | 0.481 | 0.39 | 0.544 | 0.512 | 1.04 | 1.06 | 1.2 | 0.904 | 0.189 | 0.938 | 0.84 | 0.629 | 1.11
NCI-H727 |  | 0.242 | 0.323 | 0.31 | 0.644 | 0.696 | 0.712 | 0.476 | 0.519 | 0.773 | 0.551 |  | 0.853 | 0.944 | 0.845 | 0.319 |  | 0.664 | 0.455 | 0.792
RERF-LC-KJ | 1.3 | 1.3 | 1.03 | 1.31 | 1.03 | 1.1 |  | 0.418 | 0.544 | 0.492 | 0.551 | 0.867 | 0.885 | 0.51 | 0.855 | 1.27 | 0.933 | 0.898 | 0.598 | 0.826
PC-3 [JPC-3] |  | 0.705 | 0.704 | 0.734 | 1.22 |  | 1.18 |  | 0.854 | 0.877 | 0.711 | 0.979 |  | 1.02 | 0.921 | 0.764 |  | 1.08 | 0.792 | 0.96
NCI-H1793 |  | 0.164 | 0.167 | 0.189 | 0.92 | 1.22 | 0.782 |  | 0.263 | 0.249 | 0.204 |  |  |  |  | 0.253 |  | 0.88 | 0.298 | 
IA-LM |  |  |  |  | 0.917 | 0.996 | 0.977 |  |  |  |  | 0.991 | 0.744 | 0.999 | 0.781 |  | 0.884 | 0.734 |  | 0.735
NCI-H1703 |  |  |  |  | 0.329 | 0.262 | 0.146 |  |  |  |  | 0.773 | 0.88 | 0.437 | 0.304 |  | 0.292 | 0.177 |  | 0.186
NCI-H2342 | 0.757 | 0.728 | 0.649 | 0.715 | 0.44 | 0.466 | 0.473 | 0.539 | 0.636 | 0.596 | 0.665 |  |  |  |  | 0.787 | 0.404 | 0.426 | 0.667 | 
HCC-78 |  |  |  |  | 0.564 | 1.09 | 0.885 | 0.387 | 0.389 | 0.366 | 0.314 | 0.334 | 0.344 | 0.36 | 0.314 |  | 0.688 | 0.999 | 0.332 | 0.322
Calu-6 |  |  |  |  | 0.658 | 0.673 | 0.575 |  |  |  |  | 1.09 | 1.17 | 0.985 | 0.818 |  | 0.628 | 0.549 |  | 0.652
NCI-H1666 | 1.21 |  | 1.18 | 1.03 | 0.734 | 0.769 | 0.833 |  |  |  |  | 1.02 | 1.09 | 0.991 | 1.14 | 1.06 | 0.763 | 0.74 |  | 0.966
NCI-H1299 |  |  |  |  | 0.987 | 1.01 | 0.983 |  |  |  |  |  |  |  |  |  | 0.948 | 0.97 |  | 
EBC-1 |  |  |  |  | 0.776 | 0.728 | 0.68 |  |  |  |  | 0.185 | 0.204 | 0.19 | 0.196 |  | 0.719 | 0.573 |  | 0.208
